{"source": "ChEMBL document CHEMBL4616680", "about": "“Shedding X-ray Light on the Role of Magnesium in the Activity of Mycobacterium tuberculosis Salicylate Synthase (MbtI) for Drug Design” (J Med Chem, 2020)", "key": {"[1]": {"test_system": "Mycobacterium tuberculosis", "experiment": "Inhibition of siderophore production in Mycobacterium bovis BCG at 250 to 1000 mM incubated for 15 days by universal CAS assay", "assay_type": "functional, organism-based", "conditions": "variant bovis BCG"}, "[2]": {"test_system": "Mycobacterium tuberculosis", "experiment": "Inhibition of myco-bactins production in Mycobacterium bovis BCG at 250 to 1000 mM by universal CAS assay", "assay_type": "functional, organism-based", "conditions": "variant bovis BCG"}}, "note": "The source made the active and inactive calls. The rule behind the calls is not given here."}
{"smiles": "N#Cc1cccc(-c2ccc(C(=O)O)o2)c1", "values": [{"measurement": "inhibition", "setting": "[1]", "result": "Active"}, {"measurement": "inhibition", "setting": "[2]", "result": "Active"}]}
